Experimental data from US6500858B2, “Taxoid anti-tumor agents and pharmaceutical compositions thereof” (The Research Foundation of the state University of New York, priority 1994, dated 2002).
Values joined by “and” are separate entries in the source; they are usually repeats but may differ in a detail not shown here. Identical values can stand only once. Like-named read-outs stand apart in the source and are kept apart here.

What was measured:
A121 (ovarian carcinoma) = assay: tumor cell growth inhibition (SRB, 72 h drug exposure); format: cell-based, human; details: Homo sapiens, A121; 72 h drug exposure
Protocol: (§1) Lower numbers indicate higher potency. […] The data represent the mean values of at least three separate experiments. Lower numbers indicate greater activity.
(§2) Assessment of cell growth inhibition was determined according to the methods of Skehan et al., J. Nat. Cancer Inst. […] Briefly, cells were plated between 400 and 1200 cells/well in 96 well plates and incubated at 37° C. for 15-18 h prior to drug addition to allow attachment of cells. […] After a 72 h incubation, […] of ice-cold 50% TCA was added to each well and incubated for 1 h at 4° C. Plates were then washed 5 times with tap water to remove TCA, low-molecular-weight metabolites and serum proteins. Sulforhodamine B (SRB) (0.4%, […]) was added to each well. Following a 5 min incubation at room temperature, plates were rinsed 5 times with 0.1% acetic acid and air dried. […] Optical density was measured at 570 nm.

HT-29 (colon carcinoma) = assay: as above; format: cell-based, human; details: Homo sapiens, HT-29; 72 h drug exposure
Protocol: as §1, §2

MCF7 (mammary carcinoma) = assay: as above; format: cell-based, human
Protocol: as §1, §2

[1] = test system: MCF7-R (mammary carcinoma cells 180-fold resistant to adriamycin); assay: as above; format: cell-based, human
Protocol: as §1, §2

[2] = test system: LCC6-WT: human breast carcinoma; assay: cytotoxicity assay of second generation taxoids; format: cell-based; details: Homo sapiens, 72 h, read-out: LCC6-WT IC50
Protocol: A cytotoxicity assay of these new second generation taxoids was performed on human breast cancer cell lines, LCC6-WT and LCC-MDR, and selected taxoids were also assayed for their potency against MCF7 and MCF7-R (Skehan, P., et al., J. Nat. Cancer Inst. 1990, 82, 1107-1112).

[3] = test system: LCC6-MDR: MDR1 transduced line; assay: cytotoxicity assay of second generation taxoids; format: cell-based, human; details: Homo sapiens, LCC6MDR, 72 h, read-out: LCC6-MDR IC50
A2780 = assay: growth inhibition by cell counts, 72 h; format: cell-based, human; details: read-out: A2780 IC50
Protocol: (§3) Cells were plated in 6-well flat bottom plates (Falcon, Lincoln Park, N.J.) at a concentration of 10^5 cells ml in complete medium. After 24 h, the medium was replaced with media containing the test substances. Control cells were treated with vehicle alone. Cells were then washed twice and cultures maintained up to 72 h in complete medium (without removing the test substances). At this time point quadruplicate counts of triplicate cultures were performed. To calculate the growth inhibition effect, three independent experiments were performed for each test substance/cell line. The IC50 values were then calculated by fitting the concentration-effect curve data obtained in the three experiments with the sigmoid-Emax model using nonlinear regression, weighted by the reciprocal of the square of the predicted effect according to the method of Motulsky, H. J. and Ransnas, L. A., FASEB J. 1:365-74 (1987).

DU-145 = assay: growth inhibition by cell counts, 72 h; format: cell-based, human; details: read-out: DU-145 IC50
Protocol: as §3

MCF-7 ADRr = assay: growth inhibition by cell counts, 72 h; format: cell-based, human; details: read-out: MCF-7 ADRr IC50
Protocol: as §3

MCF-7 wt = assay: growth inhibition by cell counts, 72 h; format: cell-based, human; details: read-out: MCF-7 wt IC50
Protocol: as §3

NCI-H23 = assay: growth inhibition by cell counts, 72 h; format: cell-based, human; details: read-out: NCI-H23 IC50
Protocol: as §3

PC-3 = assay: growth inhibition by cell counts, 72 h; format: cell-based, human
Protocol: as §3

WiDr = assay: growth inhibition by cell counts, 72 h; format: cell-based, human; details: read-out: WiDr IC50
Protocol: as §3

[4] = test system: mammary adenocarcinoma MA17/A; assay: oral administration to MA17/A tumor-bearing mice; format: in vivo, C3H/HeN female mice; parameters: key to Responses (activity rating): A = active; HA = highly active
Protocol: (§4) The efficacy of the test compounds on solid tumors in vivo was determined experimentally according to the following general experimental protocol:
(§5) The mice subjected to the experiment were subcutaneously grafted bilaterally with 30 to 60 mg of a tumor fragment on day zero. Mice bearing tumors were mixed before being subjected to the various treatments and controls. In the case of treatment of advanced tumors, tumors were allowed to develop to the desired size, and mice having insufficiently developed tumors were eliminated. The selected mice were distributed at random to undergo the treatments and controls. Mice not bearing tumors may also be subjected to the same treatments as the tumor-bearing mice in order to be able to dissociate the toxic effect from the specific effect on the tumor. Chemotherapy generally began from 3 to 22 days after grafting, depending on the type of tumor, and the mice were observed every day. The different mice groups were weighed 3 or 4 times a week until the maximum weight loss was attained (nadir), and the groups were then weighed at least once a week until the end of the trial.
(§6) The tumors were measured 2 or 3 times a week until the tumor reached approximately 2 grams, or until the animal died, if this occurred before the tumor reached 2 grams. The mice were autopsied when sacrificed.
(§7) The antitumor activity was determined in accordance with different parameters recorded such as dose (mg/kg), mode of administration, time of administration, cytotoxicity, toxicity and log10 cell kill.
SB-T-1213 was evaluated in C3H/HeN female mice bearing mammary adenocarcinoma MA17/A with an intermittent schedule of oral administrations. The compound for administration was formulated in 10% ethanol, 10% polysorbate 80, and 80% glucose/5% water.
SB-T-1213 was administered 3 times a day on 3 and 7 days post tumor implantation. The two highest dosages of 36.4 and 22.6 mg/kg/adm. were toxic, producing 5/5 drug related deaths (DD) and 20% body weight loss, respectively. However, the highest nontoxic dose of 14 mg/kg/adm. (total dose of 84 mg/kg), produced 8.4% body weight loss at nadir, 4 days post therapy. […] One of five mice was a tumor-free survivor (TFS) on day 94 post tumor implantation with this dosage. Two lower dosages of 8.7 and 5.4 mg/kg/adm. also maintained activity, having a log10 cell kill of greater than 3 and of 2.5, respectively.

B16 melanoma = assay: intravenous administration to mice bearing B16 melanoma; format: in vivo, B6D2F1 female mice; parameters: key to Responses (activity rating): A = active; HA = highly active
Protocol: as §4, §5, §6, §7
SB-T-1213, SB-T-121303, SB-T-121304 and SB-T-1250 were evaluated in B6D2F1 female mice bearing B16 melanoma. The general experimental protocol was as described above. The compounds evaluated were administered intravenously (iv) on an intermittent schedule on days 3, 5, and 7 post tumor implantation. With the exception of SB-T-1250, solutions of the compounds for administration were prepared in 5% ethanol, 5% polysorbate 80, and 90% glucose 5% water.

[5] = test system: docetaxel-resistant melanoma, B16/TXT; assay: intravenous administration to B16/TXT melanoma-bearing mice; format: in vivo, B6D2F1 female mice; parameters: key to Responses (activity rating): A = active; HA = highly active; details: for T/C / log10 cell kill: days 3, 5, 7
Protocol: as §4, §5, §6, §7
SB-T-1213, SB-T-121303, SB-T-121304 and SB-T-1250 were evaluated in B6D2F1 female mice bearing the docetaxel-resistant melanoma, B16/TXT. The general experimental protocol was as described above. The compounds evaluated were administered intravenously on an intermittent schedule on days 3, 5, and 7 post tumor implantation.

SMILES: CC(=O)O[C@H]1C(=O)[C@@]2(C)[C@H]([C@H](OC(=O)c3ccccc3)[C@]3(O)C[C@H](OC(=O)[C@H](O)[C@@H](NC(=O)c4ccccc4)c4ccccc4)C(C)=C1C3(C)C)[C@]1(OC(C)=O)CO[C@@H]1C[C@@H]2O [Paclitaxel, paclitaxel, reference compound]
- IC50 (A121 (ovarian carcinoma)): 6.1 nM
- IC50 (HT-29 (colon carcinoma)): 3.2 nM
- IC50 (MCF7 (mammary carcinoma); Homo sapiens, MCF7, 72 h drug exposure, Table 1, read-out: MCF7 (breast) IC50): 1.7 nM
- IC50 (MCF7 (mammary carcinoma); Homo sapiens, MCF7, 72 h drug exposure, Table 3, read-out: MCF7 IC50): 1.7 nM
- IC50 ([1]; Homo sapiens, MCF7R, 72 h drug exposure, Table 1): 300 nM
- IC50 [2]: 3.1 nM
- IC50 [3]: 346 nM
- IC50 (A2780; Homo sapiens, A2780, 72 h): 5.4 nM
- IC50 (DU-145; Homo sapiens, DU-145, 72 h): 1.5 nM
- IC50 (MCF-7 ADRr; Homo sapiens, MCF7, 72 h): 3300 nM
- IC50 (MCF-7 wt; Homo sapiens, MCF7, 72 h): 5.8 nM
- IC50 (NCI-H23; Homo sapiens, NCI-H23, 72 h): 4.1 nM
- IC50 (PC-3; Homo sapiens, PC-3, 72 h): 3.4 nM
- IC50 (WiDr; Homo sapiens, WiDr): 3.8 nM

SMILES: CCC(=O)OC1C(=O)C2(C)C(O)CC3OCC3(OC(C)=O)C2C(OC(=O)c2ccccc2)C2(O)CC(OC(=O)C(O)C(C=C(C)C)NC(=O)OC(C)(C)C)C(C)=C1C2(C)C (stereo not drawn) [Taxoid Ib, 3′-Dephenyl-3′-(2-methyl-1-propenyl)-10-propanoyldocetaxel]
- IC50 (MCF7 (mammary carcinoma); Table 2, read-out: MCF7 IC50): 0.21 nM
- IC50 ([1]; Table 2): 2.16 nM
- IC50 (A2780; 72 h): 1.77 nM
- IC50 (DU-145; 72 h): 0.3 nM
- IC50 (MCF-7 ADRr; 72 h): 8 nM
- IC50 (MCF-7 wt; 72 h): 0.9 nM
- IC50 (NCI-H23; 72 h): 0.7 nM
- IC50 (PC-3; 72 h): 0.3 nM
- IC50 (WiDr): 0.4 nM
- Responses (activity rating) ([4]; 8.7 mg/kg/adm.): A
- tumor-free survivors (TFS) ([4]; 8.7 mg/kg/adm.): 1/5
- Responses (activity rating) ([4]; 14.0 mg/kg/adm.): HA
- tumor-free survivors (TFS) ([4]; 14 mg/kg/adm., day 94 post tumor implantation, listed as SB-T-1213, 14 mg/kg): One of five and 1/5
- T/C ([4]; 14.0 mg/kg/adm., days 3, 7): 0%
- % body weight loss at nadir ([4]; 14 mg/kg/adm., days 3, 7, total 84 mg/kg, listed as SB-T-1213): 8.4% and 8.4 (4) %
- body weight loss ([4]; 22.6 mg/kg/adm., 3 times a day on days 3 and 7): 20%
- drug related deaths (DD) ([4]; 36.4 mg/kg/adm., 3 times a day on days 3 and 7): 5/5
- highest nontoxic dose ([4]; 3 times a day on days 3 and 7): 14 mg/kg/adm.
- Responses (activity rating) (B16 melanoma; 4.5 mg/kg/adm.): A
- log10 cell kill (B16 melanoma; 4.5 mg/kg/adm., days 3, 5, 7): 1.6
- Responses (activity rating) (B16 melanoma; 7.3 mg/kg/adm.): A
- log10 cell kill (B16 melanoma; 7.3 mg/kg/adm., days 3, 5, 7): 1.8
- Responses (activity rating) (B16 melanoma; 11.8 mg/kg/adm.): HA
- T/C (B16 melanoma; 11.8 mg/kg/adm., days 3, 5, 7): 0%
- log10 cell kill (B16 melanoma; 11.8 mg/kg/adm., days 3, 5, 7): 3
- % body weight loss at nadir (B16 melanoma; 11.8 mg/kg/adm., days 3, 5, 7, listed as SB-T-1213, 11.8 mg/kg): 15.3% and 15.3 (3) %
- drug related deaths (DD) (B16 melanoma; 19 mg/kg/adm., days 3, 5, 7): ⅕
- highest nontoxic dose (B16 melanoma; days 3, 5, 7): 11.8 mg/kg/adm.
- T/C ([5]; 4.5 mg/kg/adm.): 74%
- Responses (activity rating) ([5]; 7.3 mg/kg/adm.): A
- log10 cell kill ([5]; 7.3 mg/kg/adm.): 1
- Responses (activity rating) ([5]; 11.8 mg/kg/adm.): A
- log10 cell kill ([5]; 11.8 mg/kg/adm.): 1
- Responses (activity rating) ([5]; 19 mg/kg/adm.): A
- T/C ([5]; 19 mg/kg/adm.): 11%
- log10 cell kill ([5]; 19 mg/kg/adm.): 1.6
- % body weight loss at nadir ([5]; 19 mg/kg/adm., days 3, 5, 7, listed as SB-T-1213, 19 mg/kg): 17.1% and 17.1 (4) %
